Holding throughout (type): in vivo, SD rats
Data set [1] deals with MK-801-treated rats. The experiment in a line: Morris water maze test, subchronic administration, MK-801-treated rats. The following applies: MK-801 0.3 mg/kg i.p. day 15–28, mean ± S.E.M. How it is done: The MWM test was started after the last injection. Each rat was trained in 4 trials per day for 5 consecutive days. The escape latency to find the submerged escape platform in the water maze was recorded with the TopScan monitoring system. Each training session lasted for a maximum of 60 s. If the escape latency exceeded 60 s, it was recorded as 60 s and the rat was manually guided to the platform. On day 6, the platform was removed and each rat was allowed to swim freely for 60 s.

Data set [2] relates to MK-801-treated rats. Kind of data set: Morris water maze test, acute administration, MK-801-treated rats. The following applies: MK-801 0.2 mg/kg i.p., mean ± S.E.M. The protocol: SD rats (200–250 g, 8 animals/ group) were trained continuously until all rats found the platform within 30 sec, and the training time depended on the training results. […]. Then, all animals were intraperitoneal injections of 0.9% saline or MK-801 (0.2 mg/kg, i.p.) 30 minutes before the test. The test was started and the escape latency of rats was measured during the test in which platform was not withdrawn. A trial was deemed complete as soon as the rat had located platform or when 60 s had elapsed, whichever occurred first. The swimming activity of each rat was monitored by TopScan monitoring system. At the end of each trial, the maze was cleaned. The maze was rotated by clockwise after each training day to avoid potential intramaze cues (odour trails, etc.)[38].

Data set [3] relates to MK-801-induced locomotor hyperactivity in rats. Kind of data set: Inhibition of MK-801-induced hyperactivity. Particulars: mean ± S.E.M.; for distance travelled: MK-801 0.3 mg/kg i.p. How it is done:
[…]. […] Animals were returned to the activity chambers after the intraperitoneal injection, and locomotor activity as quantitated as the distance travelled (mm) was recorded for 10 to 20 minutes using the TopScan monitoring system. At the end of each trial, the faecal boli were cleaned to avoid the potential influence of intramaze cues (odour trails, etc.) on the rats[36].

With `O=C1COc2ccc(OCCCCN3CCN(c4cccc(Cl)c4Cl)CC3)cc2N1` [PCC0104005], the escape latency is given as 11.45 ± 2.70 s in the data set with MK-801-treated rats [1] (3.0 mg/kg oral for 28 days); 14.88 ± 2.95 s with MK-801-treated rats [1] (6.0 mg/kg oral for 28 days); 18.35 ± 2.76 s in the data set on MK-801-treated rats [2] (3.0 mg/kg oral 1 h before test); 17.45 ± 1.78 s in the data set with MK-801-treated rats [2] (6.0 mg/kg oral 1 h before test); 20.60 ± 1.30 s with MK-801-treated rats [2] ([…] oral 1 h before test). Besides, the distance travelled in data set [3] (3.0 mg/kg oral 1 h before test) was 2646 ± 235.2 mm; in data set [3] (6.0 mg/kg oral 1 h before test), 2655 ± 286.5 mm; in data set [3] ([…] oral 1 h before test), 3284 ± 220.7 mm. In data set [3] (administered alone without MK-801, dose not stated), the “distance travelled (spontaneous activity)” value is reported as 1885 ± 269.7 mm.

Values taken from paper PMC5931996 (Scientific Reports, 2018).
